Values joined by “and” are separate entries in the source; they are usually repeats but may differ in a detail not shown here. Identical values can stand only once. “Also recorded” adds a separate entry of the source.
Tests used:
Kv7.2/Kv7.3 channels = Kv7.2/Kv7.3 channels (Homo sapiens, UniProt O43525+O43526); assay: FluxOR thallium-sensitive fluorescence-based assay in CHO cells stably expressing Kv7.2 + Kv7.3; assay type: cell-based; design: expressed in transfected cells; conditions: for Slope of the fluorescent signal at 10 μM: initial slope of FluxOR signal between 5 and 15 s, mean ± SEM; for EC50: FluxOR dose-response, slope parameter, read-out: EC50 (initial slope of the fluorescence signal)
Procedure: While assay robustness in Kv7.2/Kv7.3-expressing cells was high (Z′ factor > 0.5),[27] the Z′ factor calculated in CHO cells expressing Kv7.2 subunits alone was <0.5; thus, all subsequent pharmacological screens were performed in Kv7.2/Kv7.3-expressing cells. […] The Kv7.2/Kv7.3-stable cell line was generated using a plasmid-based PiggyBac transposon system that enables genomic integration of multiple independent transposons containing distinct cDNA sequences. cDNAs for KCNQ2 and KCNQ3 genes (encoding for Kv7.2 and Kv7.3, respectively) were cloned into two different PiggyBac expression vectors (pB-CMV-MCS-EF1α-RedPuro, System Biosciences), and these two plasmids, together with a plasmid encoding for the transposase (System Biosciences), were transfected into CHO cells using Lipofectamine 2000 (Invitrogen) as indicated in the protocol provided by the seller company.
The selected clone stably expressing Kv7.2/Kv7.3 channels was grown in DMEM supplemented with 10% FBS, 50 U/mL Pen-Strep, 2 mM L-glutamine (all purchased from Gibco), and 4 μg/mL puromycin (Sigma) in a humidified atmosphere at 37 °C with 5% CO2. […] A kinetic dispense microplate reader (FLUOstar Optima) was used to read the plate, setting the excitation filter at 485 nm and the emission filter at 520 nm; “Stimulus buffer” prepared as indicated in the protocol was automatically added to wells after 5 s of recording; the plate was read every 1 s, for 50 s. The results were analyzed using Optima Data Analysis and Microsoft Excel.
Only experiments resulting in a Z′ > 0.5 were considered. Data shown (Figures 1D,E,F,G and 3B) were obtained from at least three independent experiments.
Data were analyzed using the GraphPad Prism 8.0.2 (GraphPad Software, LaJolla, CA). Statistically significant differences in the initial slope of the curves were evaluated through ordinary one-way ANOVA, and multiple comparisons were corrected with the Tukey test. […] Indicated EC50 values are the mean of at least three independent experiments ± standard error of the mean (SEM).

PTZ-induced seizures = assay: Pentylenetetrazol (PTZ)-induced acute seizures in mice; assay type: in vivo, C57Bl/6 mice; conditions: for Seizure score (Lüttjohann's scale): 30 min before PTZ 100 mg/kg s.c.; for Latency to maximal seizures: 30 min before PTZ; for Survival rate in PTZ seizure model: end of 60 min observation; for Minimum effective dose: i.p., PTZ model
Procedure: A subcutaneous (s.c.) injection of 100 mg/kg PTZ in mice is able to trigger convulsive behavior whose intensity can be assessed and quantified according to the revised Lüttjohann’s scale (see Materials and Methods),[40] using a 9-point severity score ranging from 0 (whisker trembling) to 8 (wild jumping). For each animal, the maximal severity score (Figure 5A) and the time latency required to reach such values (Figure 5B) were recorded.
Food and water were available ad libitum. Animals were experimentally naive and were used only once.
Thus, each dose was dissolved to allow injection of 0.01 mL/g, i.p. The control group was represented by mice injected only with vehicle solution (saline containing 2% Tween-20 and 2% PEG-400).
PTZ was injected, and animals were placed in clear Plexiglass boxes for observation of seizure activity. The severity of convulsions (from minimal “clonic” to maximal “generalized tonic–clonic”) as well as the latency to onset of maximal seizure was recorded.
0 = whisker trembling, 1 = sudden behavioral arrest, 2 = facial jerking, 3 = neck jerks, 4 = clonic seizures (sitting), 5 = tonic clonic seizures (lying on belly), 6 = clonic seizures (lying on side), 7 = tonic clonic seizures (lying on side), 8 = wild jumping. The behavioral assessments described above were performed in a blind manner and the observers had to reach a unanimous agreement regarding the scoring of the behavior.
The number of animals needed for the experiment was determined using the power analysis software GPower version 3.1.92. The required minimum sample size was 8 mice per group. Statistical analyses were performed using GraphPad Prism (GraphPad Software, LaJolla, CA) using a one-way analysis of variance with the Tukey post-hoc test. The P value of <0.05 was accepted as indicative of a statistically significant difference.

in vivo [1] = conditions: Sprague-Dawley, rat, ip, 0.3 mg/kg
Procedure: The drug half-lives were calculated using GraphPad Prism 8.0.2 (GraphPad Software, LaJolla, CA).
Returning to 40% B in 0.10 min. The flow rate was set at 0.5 mL/min. The column oven was set at 45 °C, and 5 μL of extract was injected. All additives and mobile phases were LCMS-grade and purchased from Merck (Milan, Italy).
The ESI was operated in positive mode. […] Interface temperature, desolvation line temperature, and heat block temperature were set, respectively, to 250, 250, and 350 °C. Nebulizing, drying (N2), and heating gas (air) were set, respectively, to 3, 10, and 10 L/min.

in vivo [2] = assay: in vivo
Procedure: The animals were sacrificed after 60 min, and brain and blood were collected.
For the assessment of plasmatic concentration, 20 μL of plasma was treated with 100 μL of methanol in a test tube. The tube was vortexed for 30 s. Then, the sample was centrifuged for 10 min at 14680 rpm, at 4 °C. 90 μL of supernatant was dried under nitrogen, reconstituted in 150 μL of MeOH, and then injected into the UHPLC–MS/MS.
Frozen brain tissues were lyophilized overnight, then weighed, carefully homogenized, and extracted with methanol in a 10 mg:[…] tissue:solvent ratio. The samples were vortexed for 30 s, treated in an ultrasonic bath for 5 min, and then centrifuged for 10 min at 14680 rpm, at 4 °C.
Returning to 40% B in 0.10 min.
The ESI was operated in positive mode.

[3] = 3 mg/kg i.p., listed as Retigabine

With `CCOC(=O)Nc1ccc(NCc2ccc(F)cc2)cc1N` [RET, retigabine] the “Slope of the fluorescent signal at 10 μM” value (Kv7.2/Kv7.3 channels; 10 μM) was 0.0270±0.0052, the EC50 (Kv7.2/Kv7.3 channels) was 11.2 ± 1.6 µM and the “Seizure score (Lüttjohann's scale)” value (PTZ-induced seizures; 1 mg/kg i.p.) was 6.9 ± 0.3. The “Latency to maximal seizures” value (PTZ-induced seizures; 3 mg/kg i.p.) was 1041.4±223.2 (at 3 mg/Kg) s, the “Seizure score (Lüttjohann's scale)” value (PTZ-induced seizures; 3 mg/kg i.p.) was 7.3±0.3 (at 3 mg/Kg) and the “Seizure score (Lüttjohann's scale)” value (PTZ-induced seizures; [3]) was 7.3 ± 0.3. The “Latency to maximal seizures” value (PTZ-induced seizures; [3]) was 1041.4 ± 223.2 s, the “Survival rate in PTZ seizure model” value (PTZ-induced seizures; 3 mg/kg i.p.) was 40% (at 3 mg/Kg) and the “Survival rate in PTZ seizure model” value (PTZ-induced seizures; 3 mg/kg i.p., listed as retigabine) was 40%. The Minimum effective dose (PTZ-induced seizures) was 3 mg/kg and the “log P” value (Lipophilicity (log P); method not stated) was 3.08.

Work on `CC(C)(C)CC(=O)Nc1ccc(NCc2ccc(C(F)(F)F)cc2)c(F)c1N` [compound 60, N-(2-Amino-3-fluoro-4-((4-(trifluoromethyl)benzyl)amino)phenyl)-3,3-dimethylbutanamide] yielded a concentration at 0.5 h (in vivo [1]) of 9 ng/mL, a concentration at 2 h (in vivo [1]) of 8.7 ng/mL and a concentration at 4 h (in vivo [1]) of 6.8 ng/mL. It also gave a concentration at 8 h (in vivo [1]) of 5.4 ng/mL, a concentration at 24 h (in vivo [1]) of 0 ng/mL and a half-life (in vivo [1]) of 16.9 h. It also gave a Kp at 1 h (in vivo [2]; male, C57Bl/6, mouse, in vivo, ip, 1 mg/kg) of 40.4, a concentration at 60 min (in vivo [2]; male, C57Bl/6, mouse, in vivo, ip, 1 mg/kg, Brain concentration) of 727000 ± 179000 ng/g and a concentration at 60 min (in vivo [2]; male, C57Bl/6, mouse, in vivo, ip, 1 mg/kg, Plasma concentration) of 18200 ± 3700 ng/g. The “Brain/plasma ratio higher than that of retigabine” value (in vivo [2]; mice, 1 mg/kg i.p., 60 min) was 18 times, the “Kv7 opening activity (in words)” value (Kv7.2/Kv7.3 channels; 10 μM, compared with retigabine or the reference compound of the subseries) was “enhanced; also recorded: higher than that of retigabine” and the “Slope of the fluorescent signal at 10 μM” value (Kv7.2/Kv7.3 channels; 10 μM) was 0.0594±0.0026. For the same compound, the EC50 (Kv7.2/Kv7.3 channels) was 3.2 ± 1.7 µM, the “Latency to maximal seizures” value (PTZ-induced seizures; 0.3 mg/kg i.p.) was 1159.7 ± 169.4 s and 1159.7±169.4 (at 0.3 mg/Kg) s and the “Animals surviving in PTZ seizure model” value (PTZ-induced seizures; 1 mg/kg i.p., surviving/treated animals) was 8/8. The “Survival rate in PTZ seizure model after XE991 pretreatment” value (PTZ-induced seizures; compound 60 with XE991 3 mg/kg i.p. pretreatment) was 75%, the Minimum effective dose (PTZ-induced seizures) was 0.3 mg/kg and the logP (Lipophilicity (log P)) was 4.74.
